# Assay results published in patent US20080275018A1, “ANTIBACTERIAL AMIDE-MACROCYCLES V” (AiCuris GmbH & Co. KG, priority 2005, published 2008).
# Tested on: S. aureus 133
# Assay: Minimum inhibitory concentration (MIC), S. aureus 133
# Format: cell-based, Staphylococcus aureus
# Conditions: S. aureus 133
# Experimental: The minimum inhibitory concentration (MIC) is the minimum concentration of an antibiotic with which the growth of a test microbe is inhibited over 18-24 h. The inhibitor concentration can in these cases be determined by standard microbiological methods (see, for example, The National Committee for Clinical Laboratory Standards. Methods for dilution antimicrobial susceptibility tests for bacteria that grow aerobically; approved standard-fifth edition. NCCLS document M7-A5 [ISBN 1-56238-394-9]. NCCLS, 940 West Valley Road, Suite 1400, Wayne, Pa. 19087-1898 USA, 2000). The test substances are thereby initially provided in 1:2 dilution series into 96-well round-bottom microtiter plates (Greiner) double-concentrated in 50 μl of test medium. The aerobically growing test microbes (e.g. staphylococci and enterococci), which are incubated overnight on Columbia blood agar plates (Becton-Dickinson), are, after resuspension in 0.9% NaCl, adjusted to a microbe count of about 5×10^7 microbes/ml and then diluted 1:150 in cation-adjusted MH medium (test medium). 50 μL of this suspension are pipetted onto the test preparations provided in the microtiter plates. The cultures are incubated at 37° C. for 18-24 hours. For microaerophilically growing microbes (e.g. streptococci), 2% lysed horse blood in the final concentration is added to the medium and the cultures are incubated in the presence of 5% CO2. The lowest substance concentration in each case at which no visible bacterial growth occurs any longer is defined as the MIC and is reported in μg/ml.
# The minimum inhibitory concentration (MIC) is the minimum concentration of an antibiotic with which the growth of a test microbe is inhibited over 18-24 h. The inhibitor concentration can in these cases be determined by standard microbiological methods (see, for example, The National Committee for Clinical Laboratory Standards. Methods for dilution antimicrobial susceptibility tests for bacteria that grow aerobically; approved standard-fifth edition. NCCLS document M7-A5 [ISBN 1-56238-394-9]. NCCLS, 940 West Valley Road, Suite 1400, Wayne, Pa. 19087-1898 USA, 2000). The MIC of the compounds of the invention is determined in the liquid dilution test on the 96-well microtiter plate scale. The bacterial microbes are cultivated in a minimal medium (18.5 mM Na2HPO4, 5.7 mM KH2PO4, 9.3 mM NH4Cl, 2.8 mM MgSO4, 17.1 mM NaCl, 0.033 μg/ml thiamine hydrochloride, 1.2 μg/ml nicotinic acid, 0.003 μg/ml biotin, 1% glucose, 25 μg/ml of each proteinogenic amino acid with the exception of phenylalanine; [H.-P. Kroll; unpublished]) with the addition of 0.4% BH broth (test medium). In the case of Enterococcus faecium L4001, heat-inactivated fetal calf serum (FCS; GibcoBRL, Germany) is added to the test medium in a final concentration of 10%. Overnight cultures of the test microbes are diluted to an OD578 of 0.001 (to 0.01 in the case of enterococci) in fresh test medium, and incubated 1:1 with dilutions of the test substances (1:2 dilution steps) in test medium ([…]). The cultures are incubated at 37° C. for 18-24 hours; enterococci in the presence of 5% CO2.
# The lowest substance concentration in each case at which no visible bacterial growth occurs any longer is defined as the MIC.
# The minimum inhibitory concentration (MIC) is the minimum concentration of an antibiotic with which the growth of a test microbe is inhibited over 18-24 h. The inhibitor concentration can in these cases be determined by standard microbiological methods with modified medium in an agar dilution test (see, for example, The National Committee for Clinical Laboratory Standards. Methods for dilution antimicrobial susceptibility tests for bacteria that grow aerobically; approved standard-fifth edition. NCCLS document M7-A5 [ISBN 1-56238-394-9]. NCCLS, 940 West Valley Road, Suite 1400, Wayne, Pa. 19087-1898 USA, 2000). The bacterial microbes are cultivated on 1.5% agar plates which contain 20% defibrinated horse blood. […]
compound,measurement,value
"NC[C@H](O)C[C@@H]1NC(=O)[C@@H](N)Cc2cc(ccc2O)-c2ccc(O)c(c2)C[C@@H](C(=O)O)NC1=O [Biphenomycin B, biphenomycin B, reference compound]",MIC S. aureus 133,<0.03 μ/ml
